Test results taken from patent US8088801B2, “Aryloazol-2-yl cyanoethylamino compounds, method of making and method of using thereof” (Merial Limited, priority 2007, dated 2012).

Tested on: Haemonchus contortus
Assay: Method A: screening against Haemonchus contortus, L1 larvae in microtitre plate
Details: 96 h, 4 days assessment, read-out: motility inhibition; for inhibition at 0.04 ppm: test concentration 0.04 ppm; for inhibition at 0.01 ppm: test concentration 0.01 ppm; for inhibition at 0.0025 ppm: test concentration 0.0025 ppm; for inhibition at 0.15 ppm: test concentration 0.15 ppm
From the text: Method A: Screening Method to Test Activity of Compounds Against Haemonchus contortus.

In the case of `Cc1c(Cl)cnc2cn(CC(C)(C#N)NC(=O)c3ccc(OC(F)(F)F)cc3)nc12` (stereo not shown) [Compound 3.010, N-[2-(6-Chloro-7-methyl-2H-pyrazolo[4,3-b]pyridin-2-yl)-1-cyano-1-methylethyl]-4-trifluoromethoxybenzamide], the inhibition at 0.04 ppm is reported as no less than 90%.
Work on `C=Cc1cc(Cl)cc2nn(CC(C)(C#N)NC(=O)c3ccc(OC(F)(F)F)cc3)nc12` (stereo not shown) [Compound 1.075, N-[2-(6-Chloro-4-vinyl-2H-benzotriazol-2-yl)-1-cyano-1-methylethyl]-4-trifluoromethoxybenzamide] yielded an inhibition at 0.04 ppm of no less than 90%.
Work on `CCOc1c2cc(Cl)ccc2nn1CC(C)(C#N)NC(=O)c1ccc(OC(F)(F)F)cc1` (stereo not shown) [Compound 2.014, N-[2-(5-Chloro-3-ethoxy-2H-indazol-2-yl)-1-cyano-1-methylethyl]-4-trifluoromethoxybenzamide] yielded an inhibition at 0.01 ppm of no less than 90%.
`CC(C#N)(Cn1nc2cc(Cl)ccc2c1Br)NC(=O)c1ccc(OC(F)(F)F)cc1` (stereo not shown) [Compound 2.042, N-[2-(3-Bromo-6-chloro-2H-indazol-2-yl)-1-cyano-1-methylethyl]-4-trifluoromethoxybenzamide] was tested, and the inhibition at 0.0025 ppm was no less than 90%.
Work on `CC(C#N)(Cn1nc2ccc(Cl)cc2n1)NC(=O)c1ccc(S(=O)(=O)C(F)(F)F)cc1` (stereo not shown) [Compound 1.031, N-[2-(5-Chloro-2H-benzotriazol-2-yl)-1-cyano-1-methylethyl]-4-trifluoromethylsulfonylbenzamide] yielded an inhibition at 0.15 ppm of no less than 90%.
Compound `CC(C#N)(Cn1cc2ccc(Cl)c(Cl)c2n1)NC(=O)c1ccc(OC(F)(F)F)cc1` (stereo not shown) [Compound 2.045, N-[1-Cyano-2-(6,7-dichloro-2H-indazol-2-yl)-1-methylethyl]-4-trifluoromethoxybenzamide] has an inhibition at 0.0025 ppm of no less than 90%.
In the case of `Cc1c2ccc(Cl)cc2nn1CC(C)(C#N)NC(=O)c1ccc(OC(F)(F)F)cc1` (stereo not shown) [Compound 2.050, N-[2-(6-Chloro-3-methyl-2H-indazol-2-yl)-1-cyano-1-methylethyl]-4-trifluoromethoxybenzamide], the inhibition at 0.0025 ppm is reported as no less than 90%.
`Cc1cc(Cl)c(C)c2nn(CC(C)(C#N)NC(=O)c3ccc(OC(F)(F)F)cc3)nc12` (stereo not shown) [Compound 1.092, N-[2-(5-Chloro-4,7-dimethyl-2H-benzotriazol-2-yl)-1-cyano-1-methylethyl]-4-trifluoromethoxybenzamide] was tested, and the inhibition at 0.01 ppm was no less than 90%.
`CC(C#N)(Cn1nc2cccc(Cl)c2n1)NC(=O)c1ccc(Oc2ccccc2)cc1` (stereo not shown) [Compound 1.045, N-[2-(4-Chloro-2H-benzotriazol-2-yl)-1-cyano-1-methylethyl]-4-phenoxybenzamide] showed an inhibition at 0.15 ppm of no less than 90%.
`CC(C#N)(Cn1nc2cc(Cl)cc(C#N)c2n1)NC(=O)c1ccc(OC(F)(F)F)cc1` (stereo not shown) [Compound 1.067, N-[2-(6-Chloro-4-cyano-2H-benzotriazol-2-yl)-1-cyano-1-methylethyl]-4-trifluoromethoxybenzamide] was tested, and the inhibition at 0.04 ppm was no less than 90%.
Work on `CC(C#N)(Cn1nc2ccc(Cl)cc2n1)NC(=O)c1ccc(Oc2ccccc2)cc1` (stereo not shown) [Compound 1.032, N-[2-(5-Chloro-2H-benzotriazol-2-yl)-1-cyano-1-methylethyl]-4-phenoxybenzamide] yielded an inhibition at 0.04 ppm of no less than 90%.
Compound `COc1c2ccc(Br)cc2nn1CC(C)(C#N)NC(=O)c1ccc(OC(F)(F)F)cc1` (stereo not shown) [Compound 2.023, N-[2-(6-Bromo-3-methoxy-2H-indazol-2-yl)-1-cyano-1-methylethyl]-4-trifluoromethoxybenzamide] has an inhibition at 0.0025 ppm of no less than 90%.
`CC(C#N)(Cn1nc2cc(Cl)cc(C(F)CF)c2n1)NC(=O)c1ccc(OC(F)(F)F)cc1` (stereo not shown) [Compound 1.078, N-{2-[6-Chloro-4-(1,2-difluoroethyl)-2H-benzotriazol-2-yl]-1-cyano-1-methyl-ethyl}-4-trifluoromethoxybenzamide] gave an inhibition at 0.04 ppm of no less than 90%.
Work on `CC(C#N)(Cn1nc2cc(Cl)cc(Cl)c2n1)NC(=O)c1ccc(S(=O)(=O)C(F)(F)F)cc1` (stereo not shown) [Compound 1.025, N-[1-Cyano-2-(4,6-dichloro-2H-benzotriazol-2-yl)-1-methylethyl]-4-trifluoromethylsulfonylbenzamide] yielded an inhibition at 0.15 ppm of no less than 90%.
For `CC(C#N)(Cn1nc2cc(Cl)cc(CO)c2n1)NC(=O)c1ccc(OC(F)(F)F)cc1` (stereo not shown) [Compound 1.081, N-[2-(6-Chloro-4-hydroxymethyl-2H-benzotriazol-2-yl)-1-cyano-1-methylethyl]-4-trifluoromethoxybenzamide], the inhibition at 0.15 ppm was no less than 90%.
For `CC(C#N)(Cn1nc2c(Cl)c(Br)c(Cl)c(Br)c2n1)NC(=O)c1ccc(OC(F)(F)F)cc1` (stereo not shown) [Compound 1.088, N-[1-Cyano-2-(4,6-dibromo-5,7-dichloro-2H-benzotriazol-2-yl)-1-methylethyl]-4-trifluoromethoxybenzamide], the inhibition at 0.0025 ppm was no less than 90%.
For `COC(=O)c1cc(Cl)cc2nn(CC(C)(C#N)NC(=O)c3ccc(OC(F)(F)F)cc3)nc12` (stereo not shown) [Compound 1.084, Methyl 6-chloro-2-[2-cyano-2-({[4-(trifluoromethoxy)phenyl]carbonyl}-amino)propyl]-2H-benzotriazole-4-carboxylate], the inhibition at 0.15 ppm was no less than 90%.
For `CC(C#N)(Cn1nc2ccc(Cl)c(Br)c2n1)NC(=O)c1ccc(OC(F)(F)F)cc1` (stereo not shown) [Compound 1.057, N-[2-(4-Bromo-5-chloro-2H-benzotriazol-2-yl)-1-cyano-1-methylethyl]-4-trifluoromethoxybenzamide], the inhibition at 0.04 ppm was no less than 90%.
`CC(C#N)(Cn1nc2c(Cl)c(Cl)ccc2c1Cl)NC(=O)c1ccc(OC(F)(F)F)cc1` (stereo not shown) [Compound 2.039, N-[1-Cyano-1-methyl-2-(3,6,7-trichloro-2H-indazol-2-yl)ethyl]-4-trifluoromethoxybenzamide] showed an inhibition at 0.01 ppm of no less than 90%.
Work on `CC(C#N)(Cn1nc2cc(Cl)cc(Br)c2n1)NC(=O)c1ccc(OC(F)(F)F)cc1` (stereo not shown) [Compound 1.060, N-[2-(4-Bromo-6-chloro-2H-benzotriazol-2-yl)-1-cyano-1-methylethyl]-4-trifluoromethoxybenzamide] yielded an inhibition at 0.04 ppm of no less than 90%.
With `CSCC(C#N)(Cn1nc2ccc(Cl)cc2n1)NC(=O)c1ccc(OC(F)(F)F)cc1` (stereo not shown) [Compound 1.061, N-[2-(5-Chloro-2H-benzotriazol-2-yl)-1-cyano-1-(methylthiomethyl)ethyl]-4-trifluoromethoxybenzamide] the inhibition at 0.15 ppm was no less than 90%.
For `CC(C#N)(Cn1nc2cc(C(F)(F)F)cc(C#N)c2n1)NC(=O)c1ccc(OC(F)(F)F)cc1` (stereo not shown) [Compound 1.054, N-[1-Cyano-2-(4-cyano-6-trifluoromethyl-2H-benzotriazol-2-yl)-1-methylethyl]-4-trifluoromethoxybenzamide], the inhibition at 0.15 ppm was no less than 90%.
`CC(C#N)(Cn1nc2cc(Cl)cc(C=O)c2n1)NC(=O)c1ccc(OC(F)(F)F)cc1` (stereo not shown) [Compound 1.079, N-[2-(6-Chloro-4-formyl-2H-benzotriazol-2-yl)-1-cyano-1-methylethyl]-4-trifluoromethoxybenzamide] showed an inhibition at 0.15 ppm of no less than 90%.
For `CC(C#N)(Cn1cc2cc(Cl)cc(Cl)c2n1)NC(=O)c1ccc(Oc2ccccc2)cc1` (stereo not shown) [Compound 2.004, N-[1-Cyano-2-(5,7-dichloro-2H-indazol-2-yl)-1-methylethyl]-4-phenoxybenzamide], the inhibition at 0.15 ppm was no less than 90%.
`Cc1ccc2nn(CC(C)(C#N)NC(=O)c3ccc(OC(F)(F)F)cc3)nc2c1` (stereo not shown) [Compound 1.006, N-[1-Cyano-1-methyl-2-(5-methyl-2H-benzotriazol-2-yl)ethyl]-4-trifluoromethoxybenzamide] gave an inhibition at 0.15 ppm of no less than 90%.
`COc1c2ncc(Cl)c(C)c2nn1CC(C)(C#N)NC(=O)c1ccc(OC(F)(F)F)cc1` (stereo not shown) [Compound 3.008, N-[2-(6-Chloro-3-methoxy-7-methyl-2H-pyrazolo[4,3-b]pyridin-2-yl)-1-cyano-1-methylethyl]-4-trifluoromethoxybenzamide] was tested, and the inhibition at 0.01 ppm was no less than 90%.
`Cc1cc(Cl)cc2cn(CC(C)(C#N)NC(=O)c3ccc(OC(F)(F)F)cc3)nc12` (stereo not shown) [Compound 2.006, N-[2-(5-Chloro-7-methyl-2H-indazol-2-yl)-1-cyano-1-methylethyl]-4-trifluoromethoxybenzamide] was tested, and the inhibition at 0.04 ppm was no less than 90%.
`COc1c2ccc([N+](=O)[O-])cc2nn1CC(C)(C#N)NC(=O)c1ccc(OC(F)(F)F)cc1` (stereo not shown) [Compound 2.033, N-[1-Cyano-2-(3-methoxy-6-nitro-2H-indazol-2-yl)-1-methylethyl]-4-trifluoromethoxybenzamide] gave an inhibition at 0.15 ppm of no less than 90%.
For `COc1c2ccc(C(F)(F)F)cc2nn1CC(C)(C#N)NC(=O)c1ccc(OC(F)(F)F)cc1` (stereo not shown) [Compound 2.025, N-[1-Cyano-2-(3-methoxy-6-trifluoromethyl-2H-indazol-2-yl)-1-methylethyl]-4-trifluoromethoxybenzamide], the inhibition at 0.0025 ppm was no less than 90%.
`CC(C#N)(Cn1nc2c(Br)cc(Cl)c(Br)c2n1)NC(=O)c1ccc(OC(F)(F)F)cc1` (stereo not shown) [Compound 1.083, N-[2-(5-Chloro-4,7-dibromo-2H-benzotriazol-2-yl)-1-cyano-1-methylethyl]-4-trifluoromethoxybenzamide] gave an inhibition at 0.0025 ppm of no less than 90%.
Compound `Cc1c2cc(Cl)cc(Cl)c2nn1CC(C)(C#N)NC(=O)c1ccc(OC(F)(F)F)cc1` (stereo not shown) [Compound 2.010, N-[1-Cyano-2-(5,7-dichloro-3-methyl-2H-indazol-2-yl)-1-methylethyl]-4-trifluoromethoxybenzamide] has an inhibition at 0.15 ppm of no less than 90%.
`CC(C#N)(Cn1nc2ccc(Cl)cc2n1)NC(=O)c1ccc(C(F)(F)F)cc1` (stereo not shown) [Compound 1.002, N-[2-(5-Chloro-2H-benzotriazol-2-yl)-1-cyano-1-methylethyl]-4-trifluoromethylbenzamide] gave an inhibition at 0.15 ppm of no less than 90%.
In the case of `CCOc1c2ccc(Cl)cc2nn1CC(C)(C#N)NC(=O)c1ccc(OC(F)(F)F)cc1` (stereo not shown) [Compound 2.027, N-[2-(6-Chloro-3-ethoxy-2H-indazol-2-yl)-1-cyano-1-methylethyl]-4-trifluoromethoxybenzamide], the inhibition at 0.01 ppm is reported as no less than 90%.
For `CC(C#N)(Cn1nc2cc(Cl)ccc2c1Cl)NC(=O)c1ccc(OC(F)(F)F)cc1` (stereo not shown) [Compound 2.044, N-[1-Cyano-2-(3,6-dichloro-2H-indazol-2-yl)-1-methylethyl]-4-trifluoromethoxybenzamide], the inhibition at 0.0025 ppm was no less than 90%.
